Reference: patent US20030065030A1, “Autonomic controlling agents and health drinks and foods” (priority 2001, published 2003)

Test system: 2DG hyperglycemic rats
Assay: anti-hyperglycemia in the 2DG hyperglycemic rats
Type: in vivo, rat
Conditions: 10 ng intracranially administered
Source text: Since blood glucose levels are expected to be reduced when the activity of the autonomic nervous system is controlled by carnosine at a low dose, the effect of carnosine on anti-hyperglycemia in the 2DG hyperglycemic rats was investigated according to the method of Chun et al. (Brain Research 809:165-174, 1998). Wistar male rats (initial weight, about 250 g) were used that had been acclimated for at least 10 days to an environment in a room illuminated with an incandescent light of 80 lux on the average for 12 hours at room temperature (24 +/− 1° C.) with free access to the feed.
Three days before the experiment, rats under anesthesia with pentobarbital (35 mg/kg body weight, intraperitoneal administration) received the insertion of a cardiac catheter comprising a silastic tubing (Dow Corning, Midland, Mich.) and a polyethylene tubing (Clay Adams, Parsippany, N.J.) into the right atrium and a polyethylene tubing into the right lateral cerebral ventricle (LCV). On the day of the experiment, carnosine dissolved in physiological saline was administered to the rats intracranially (0.01 ml) or intraperitoneally (0.1 ml) with the simultaneous administration into the rat LCV of 80 μmol 2-deoxy-D-glucose (2DG, 0.01 ml). The control rats received physiological saline instead of carnosine and an artificial cerebrospinal fluid in stead of 2DG, each at the same amount.
Sixty minutes after the administration of 2DG into the LCV, 300 μl of blood was taken via the cardiac catheter and the plasma level of glucose was determined. The glucose concentrations in the plasma were measured using the Fuji-Dri-chem system (Fuji Film Tokyo) according to the glucose oxidase method. Changes in plasma concentrations of glucose were expressed as a ratio (%) relative to the control value at 90 minutes after 2DG administration set at 100. Four or five rats were used in the experiments. Data were tested with ANOVA (p<0.05) and were expressed as mean +/− standard error.

## Cn1cncc1C[C@H](NC(=O)CCN)C(=O)O [anserine, reference compound]
  effect on hyperglycemia: did not suppress hyperglycemia
